Experimental data as given in article PMC12294558, “New 1,2,4-Triazole Derivatives with a N-Mannich Base Structure Based on a 4,6-Dimethylpyridine Scaffold as Anticancer Agents: Design, Synthesis, Biological Evaluation, and Molecular Modeling” (International Journal of Molecular Sciences, 2025).
Marks after values point to notes of the source that are not given here.

What was measured:
[1] = molecular target: T1, P-glycoprotein (LoVo cells) (Homo sapiens, UniProt P08183); experiment: Rhodamine-123 accumulation assay in LoVo; type: cell-based; details: 50 µM, 24 h; versus untreated control
T1 construct: intracellular accumulation of rhodamine 123 (a fluorescent P-gp substrate analog) in P-gp-expressing cell lines (HT-29, LoVo, and LoVo/Dx); endogenous in cells; host or cells: HT-29, LoVo (ECACC via Sigma-Aldrich); LoVo/Dx (doxorubicin-selected subline of LoVo)
T1 sequence (P08183 whole entry): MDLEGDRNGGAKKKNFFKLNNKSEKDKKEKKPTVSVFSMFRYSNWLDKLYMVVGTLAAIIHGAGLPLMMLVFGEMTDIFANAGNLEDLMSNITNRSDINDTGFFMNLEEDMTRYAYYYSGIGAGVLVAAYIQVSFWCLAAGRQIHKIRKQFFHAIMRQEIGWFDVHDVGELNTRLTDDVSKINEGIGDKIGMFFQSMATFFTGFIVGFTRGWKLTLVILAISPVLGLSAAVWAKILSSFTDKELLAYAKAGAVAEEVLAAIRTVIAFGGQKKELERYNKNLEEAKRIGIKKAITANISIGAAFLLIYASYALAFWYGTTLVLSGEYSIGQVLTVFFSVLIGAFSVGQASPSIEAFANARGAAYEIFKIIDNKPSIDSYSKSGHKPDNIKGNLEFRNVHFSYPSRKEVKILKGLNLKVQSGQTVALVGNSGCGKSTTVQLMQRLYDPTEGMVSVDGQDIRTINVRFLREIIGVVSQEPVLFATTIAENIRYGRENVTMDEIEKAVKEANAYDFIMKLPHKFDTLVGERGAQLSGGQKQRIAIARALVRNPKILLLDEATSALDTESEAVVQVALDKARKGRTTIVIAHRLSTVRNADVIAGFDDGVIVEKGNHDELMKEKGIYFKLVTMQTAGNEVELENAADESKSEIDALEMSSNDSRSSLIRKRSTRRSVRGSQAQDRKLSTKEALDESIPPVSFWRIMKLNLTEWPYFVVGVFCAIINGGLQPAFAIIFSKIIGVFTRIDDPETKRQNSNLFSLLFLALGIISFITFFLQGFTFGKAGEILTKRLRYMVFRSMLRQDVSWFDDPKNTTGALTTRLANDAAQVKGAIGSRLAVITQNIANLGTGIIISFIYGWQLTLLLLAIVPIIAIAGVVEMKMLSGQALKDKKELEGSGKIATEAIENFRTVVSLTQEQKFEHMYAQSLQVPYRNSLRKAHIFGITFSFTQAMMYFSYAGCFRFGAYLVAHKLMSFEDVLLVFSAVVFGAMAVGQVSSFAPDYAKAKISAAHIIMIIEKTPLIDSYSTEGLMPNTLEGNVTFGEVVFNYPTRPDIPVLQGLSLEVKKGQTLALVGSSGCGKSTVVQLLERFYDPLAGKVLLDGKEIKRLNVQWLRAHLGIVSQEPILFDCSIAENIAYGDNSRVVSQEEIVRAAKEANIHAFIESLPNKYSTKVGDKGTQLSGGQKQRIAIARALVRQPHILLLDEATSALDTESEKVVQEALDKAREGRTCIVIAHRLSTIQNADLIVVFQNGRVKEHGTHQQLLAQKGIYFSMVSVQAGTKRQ
From the text: (§1) This test measured the intracellular accumulation of rhodamine 123 (a fluorescent P-gp substrate analog) in P-gp-expressing cell lines (HT-29, LoVo, and LoVo/Dx). Following accumulation and efflux phases, the fluorescence of rhodamine 123 (Rh-123) was quantified using spectrofluorimetry. The results are illustrated in Figure 3. Verapamil, a calcium channel blocker, served as a positive control for P-gp inhibition due to its well-established ability to inhibit P-gp activity. Verapamil binds to P-gp, inhibiting its function, which increases the intracellular concentration of chemotherapeutic drugs and other P-gp substrates.
(§2) The activity was measured for cells treated with a 50 µM concentration of the compounds and drugs in the recommended media for each cell line (without FBS) in a volume of 100 µL for 24 h. In this test, verapamil served as the control. After the incubation period, a 10 mM Rhodamine-123 (Rh-123) solution was prepared in a 1:1 DMSO mixture. […] Fluorescence was measured at 485 nm excitation and 538 nm emission using a Biotek Synergy H1 microplate reader (Agilent Technologies, Inc., Santa Clara, CA, USA). […]
(§3) Results are expressed as the mean ± SD (standard deviation) relative to the respective control (E/E0), where E represents the mean result for the measured sample, and E0 represents the mean result for the control. […]

[2] = test system: LoVo/Dx cells; experiment: MTT viability assay, doxorubicin-resistant LoVo/Dx; type: cell-based, human; details: for SI, LoVo/Dx: CC50 CCD 841 CoTr / CC50 LoVo/Dx; for CC50: Homo sapiens, LoVo/DX, MTT, 24 h, read-out: CC50 ± SD, LoVo/Dx
Experimental: (§4) The cytotoxic effects of ten newly synthesized N-Mannich bases were assessed on the normal human intestinal epithelium (CCD 841 CoTr) and cancer cell lines: gastric cancer (EPG) and four colorectal cancer lines (Caco-2, LoVo, LoVo/Dx, and HT-29). Cell viability was evaluated using the MTT assay in accordance with Annex C of ISO 10993-5 [33].
(§5) The biological activity of the newly synthesized compounds was assessed in the context of anticancer activity. For this purpose, several gastrointestinal cancer lines were selected: gastric cancer (EPG 257, which belongs to the collection of the Laboratory of Cell Culture and Advanced Therapy at the University of Environmental and Life Sciences in Wrocław), and four colorectal cancer cell lines (LoVo, Caco-2, and HT-29) were obtained from the European Collection of Authenticated Cell Cultures (ECACC) and were delivered by Sigma-Aldrich, a certified distributor for the biobank. Additionally, LoVo cells were used to develop a doxorubicin-resistant subline, referred to as LoVo/Dx. Resistance was induced through gradual adaptation to increasing concentrations of doxorubicin, starting from 0.1 µg/mL and incrementally raised to 0.8 µg/mL. After reaching the maximum concentration, the cells were maintained in a medium containing 0.4 µg/mL doxorubicin for a period of three months to stabilize the resistant phenotype. […] The resulting LoVo/Dx subline, resistant to doxorubicin, was cultured in DMEM/F-12 medium and utilized in assays evaluating the effectiveness of novel compounds against multidrug-resistant cancer cells. […] The non-cancerous cell control was normal colonic epithelial cells (CCD 841 CoTr from American Type Culture Collection, (ATCC, Manassas, VA, USA)). Cell cultures were performed under standard conditions (5% CO2, 95% humidity, and 37 °C). Each cell line was cultured in the recommended medium: (1) HT-29 in McCoy’s 5a, (2) Caco-2 in Minimal Essential Medium (MEM, Biological Industries, Beit Haemek, Israel), (3) CCD 841 CoTr in Dulbecco’s Modified Eagle Medium (DMEM, Biological Industries, Beit Haemek, Israel), (4) LoVo in Dulbecco’s Modified Eagle Medium/F-12 (DMEM/F-12; Biological Industries, Beit Haemek, Israel), (5) LoVo/Dx in DMEM/F-12, and (6) EPG in DMEM. Culture media were supplemented with 10% fetal bovine serum (FBS, Sigma-Aldrich, Darmstadt, Germany) and antibiotics (penicillin and streptomycin; Sigma-Aldrich, Darmstadt, Germany). For assays, trypsinized (TrypLE solution, Thermo Fisher Scientific, Waltham, MA, USA) cells were seeded at appropriate densities of 10,000 cells per well for MTT and determination of apoptotic and necrotic cell numbers; 30,000 cells per well for the rhodamine accumulation assay; and 500,000 cells per well for ELISA tests.
(§6) The cytotoxicity of the compounds and drugs used as controls was assessed using the MTT assay. The assay also included a DMSO control. After seeding and allowing the cells to adhere overnight, they were treated with the tested compounds and drugs for another 24 h. After this time, the supernatant was removed, and a 1 mg/mL MTT solution was added for 2 h in 5% CO2, 95% humidity, at 37 °C. The supernatant was then removed, and isopropanol was added to dissolve the purple crystals over 30 min by shaking. Absorbance was measured at 570 nm in a Multiskan GO microplate reader (Thermo Fisher Scientific; Waltham, MA, USA). All reagents used for the assays were purchased from Sigma-Aldrich, Darmstadt, Germany.
(§7) Biological assays were performed in three independent replicates, each involving four samples. ELISA determinations were repeated three times.

[3] = test system: HT-29 cells; experiment: MTT viability assay, colorectal cancer cells HT-29; type: cell-based, human; details: for SI, HT-29: CC50 CCD 841 CoTr / CC50 HT-29; for CC50: Homo sapiens, HT-29, MTT, 24 h, read-out: CC50 ± SD, HT-29
Experimental: as §4, §5, §6, §7

[4] = molecular target: T2, P-glycoprotein (HT-29 cells) (Homo sapiens, UniProt P08183); experiment: Rhodamine-123 accumulation assay in HT-29; type: cell-based; details: 50 µM, 24 h; versus untreated control
T2 construct: intracellular accumulation of rhodamine 123 (a fluorescent P-gp substrate analog) in P-gp-expressing cell lines (HT-29, LoVo, and LoVo/Dx); endogenous in cells; host or cells: HT-29, LoVo (ECACC via Sigma-Aldrich); LoVo/Dx (doxorubicin-selected subline of LoVo)
T2 sequence (P08183 whole entry): as above
From the text: as §1, §2, §3

[5] = test system: Caco-2 cells; experiment: MTT viability assay, colorectal cancer cells Caco-2; type: cell-based, human; details: for SI, Caco-2: CC50 CCD 841 CoTr / CC50 Caco-2; for CC50: Homo sapiens, Caco-2, MTT, 24 h, read-out: CC50 ± SD, Caco-2
Experimental: as §4, §5, §6, §7

[6] = test system: LoVo cells; experiment: MTT viability assay, colorectal cancer cells LoVo; type: cell-based, human; details: for SI, LoVo: CC50 CCD 841 CoTr / CC50 LoVo
Experimental: as §4, §5, §6, §7

[7] = test system: EPG cells; experiment: MTT viability assay, gastric cancer cells; type: cell-based, human; details: for SI, EPG: CC50 CCD 841 CoTr / CC50 EPG; for CC50: Homo sapiens, MTT, 24 h, read-out: CC50 ± SD, EPG
Experimental: as §4, §5, §6, §7

[8] = MTT viability assay, normal colonic epithelial cells; type: cell-based, human; details: human, CCD 841 CoTr normal colonic epithelial cells, Non-toxic = no toxicity in tested range 1–500 μM, read-out: CC50 ± SD, CCD 841 CoTr
Experimental: as §4, §5, §6, §7

[9] = molecular target: T3, P-glycoprotein (LoVo/Dx cells) (Homo sapiens, UniProt P08183); experiment: Rhodamine-123 accumulation assay in LoVo/Dx; type: cell-based; details: 50 µM, 24 h; versus untreated control
T3 construct: intracellular accumulation of rhodamine 123 (a fluorescent P-gp substrate analog) in P-gp-expressing cell lines (HT-29, LoVo, and LoVo/Dx); endogenous in cells; host or cells: HT-29, LoVo (ECACC via Sigma-Aldrich); LoVo/Dx (doxorubicin-selected subline of LoVo)
T3 sequence (P08183 whole entry): as above
From the text: as §1, §2, §3

Row | Compound | Increase of Rh-123 accumulation, LoVo [1] [fold] | SI, LoVo/Dx [2] | CC50 [2] [µM] | SI, HT-29 [3] | CC50 [3] [µM] | Increase of Rh-123 accumulation, HT-29 [4] [fold] | SI, Caco-2 [5] | CC50 [5] [µM] | SI, LoVo [6] | CC50 ± SD, LoVo ([6]; MTT, 24 h, Non-toxic = no toxicity in tested range 1–500 μM) | SI, EPG [7] | CC50 [7] [µM] | CC50 at 24 h [8] [µM] | Increase of Rh-123 accumulation, LoVo/Dx [9] [fold] | CC50 ([6]; Homo sapiens, LoVo, MTT, 24 h, Non-toxic = no toxicity in tested range 1–500 μM, read-out: CC50 ± SD, LoVo) [µM]
1 | Cc1cc(C)c(C(=O)NCc2nn(CN3CCN(c4cccc(Cl)c4)CC3)c(=S)n2-c2ccccc2)c(S)n1 [Compound 5, 4,6-dimethyl-N-[(4-phenyl-5-thioxo-2-{[4-(3-chlorophenyl)piperazinyl]methyl}-4,5-dihydro-1H-1,2,4-triazol-3-yl)methyl]-2-sulfanylpyridine-3-carboxamide] | 2.8 | 1.20 | 184 ± 2.7 | 2.15 | 102 ± 2.7 | 1.23 | 0.97 | 228 ± 5.2 | >>1 ^c | Non-toxic ^b | 2.66 | 83 ± 4.6 | 221 ± 2.4 | 4.2 | 
2 | Cc1ccc(N2CCN(Cn3nc(CNC(=O)c4c(C)cc(C)nc4S)n(-c4ccccc4)c3=S)CC2)cc1 [Compound 6] | 2.55 | 1.99 | 195 ± 5.7 | 3.16 | 123 ± 3.9 | 1.46 | 5.16 | 75.1 ± 5.1 | 2.37 |  | 6.72 | 57.7 ± 5.4 | 388 ± 6.5 | 3.5 | 163 ± 4.6
